Values joined by “and” are separate entries in the source; they are usually repeats but may differ in a detail not shown here. Equal entries are not always repeated. Toxic doses and inconclusive results are not listed. Rule as the data show it: active = T/C of 150% or more; inactive = T/C below 125%.
System: L1210 leukemia ip in BDF1 mice, survival T/C
Test: NCI In Vivo Anticancer Drug Screen. Data for tumor model L1210 Leukemia (intraperitoneal) in B6D2F1 (BDF1) mice
Conditions: endpoint: mean survival time, higher = longer survival
Outline: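 Transplanted-tumor mice were given test agent; controls received vehicle only. Survival readings from the two groups were divided (treated over control).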

[1] = dose: 25.0 mg/kg/injection, schedule: Q04DX003 (ip), vehicle: Klucel (hydroxypropylcellulose) (HPC)
[2] = dose: 50.0 mg/kg/injection, schedule: Q04DX003 (ip), vehicle: Klucel (hydroxypropylcellulose) (HPC)
[3] = dose: 200.0 mg/kg/injection, schedule: Q04DX003 (ip), vehicle: Klucel (hydroxypropylcellulose) (HPC)
[4] = dose: 200.0 mg/kg/injection, schedule: Q01DX001 (ip), vehicle: saline
[5] = dose: 100.0 mg/kg/injection, schedule: Q01DX009 (ip), vehicle: saline with Tween-80
[6] = dose: 100.0 mg/kg/injection, schedule: Q04DX003 (ip), vehicle: saline with Tween-80
[7] = dose: 200.0 mg/kg/injection, schedule: Q01DX009 (ip), vehicle: saline with Tween-80
[8] = dose: 200.0 mg/kg/injection, schedule: Q04DX003 (ip), vehicle: saline with Tween-80
[9] = dose: 400.0 mg/kg/injection, schedule: Q04DX003 (ip), vehicle: saline with Tween-80
[10] = dose: 50.0 mg/kg/injection, schedule: Q01DX001 (ip), vehicle: saline
[11] = dose: 100.0 mg/kg/injection, schedule: Q01DX001 (ip), vehicle: saline
[12] = dose: 400.0 mg/kg/injection, schedule: Q01DX001 (ip), vehicle: saline
[13] = dose: 100.0 mg/kg/injection, schedule: Q04DX003 (ip), vehicle: Klucel (hydroxypropylcellulose) (HPC)
[14] = dose: 400.0 mg/kg/injection, schedule: Q04DX003 (ip), vehicle: Klucel (hydroxypropylcellulose) (HPC)
[15] = dose: 100.0 mg/kg/injection, schedule: Q01DX001 (ip), vehicle: saline with Tween-80
[16] = dose: 200.0 mg/kg/injection, schedule: Q01DX001 (ip), vehicle: saline with Tween-80
[17] = dose: 400.0 mg/kg/injection, schedule: Q01DX001 (ip), vehicle: saline with Tween-80

Measured: T/C

C1CN(SSN2CCOCC2)CCO1
inactive: dose: 12.5 mg/kg/injection, schedule: Q04DX003 (ip), vehicle: Klucel (hydroxypropylcellulose) (HPC) 89 % of control | [1] 110 % of control | [2] 89 % of control | [3] 102 % of control

c1ccc2cc(CCSSCCc3ccc4ccccc4c3)ccc2c1
inactive: [4] 87 % of control

COc1cc(OC)c(NC(=O)Nc2cc([N+](=O)[O-])ccc2C)cc1Cl
inactive: dose: 100.0 mg/kg/injection, schedule: Q04DX002 (ip), vehicle: Klucel (hydroxypropylcellulose) (HPC) 97 % of control | dose: 200.0 mg/kg/injection, schedule: Q04DX002 (ip), vehicle: Klucel (hydroxypropylcellulose) (HPC) 108 % of control | dose: 400.0 mg/kg/injection, schedule: Q04DX002 (ip), vehicle: Klucel (hydroxypropylcellulose) (HPC) 114 % of control

CN(C1CCCC1)C1CCCC1
inactive: dose: 10.0 mg/kg/injection, schedule: Q01DX009 (ip), vehicle: Klucel (hydroxypropylcellulose) (HPC) 106 % of control | dose: 10.0 mg/kg/injection, schedule: Q04DX003 (ip), vehicle: Klucel (hydroxypropylcellulose) (HPC) 102 % of control | dose: 20.0 mg/kg/injection, schedule: Q01DX009 (ip), vehicle: Klucel (hydroxypropylcellulose) (HPC) 104 % of control | dose: 20.0 mg/kg/injection, schedule: Q04DX003 (ip), vehicle: Klucel (hydroxypropylcellulose) (HPC) 94 % of control | dose: 40.0 mg/kg/injection, schedule: Q01DX009 (ip), vehicle: Klucel (hydroxypropylcellulose) (HPC) 102 % of control | dose: 40.0 mg/kg/injection, schedule: Q04DX003 (ip), vehicle: Klucel (hydroxypropylcellulose) (HPC) 96 % of control

S=C(S)N1CCC(CCCC2CCN(C(=S)S)CC2)CC1
inactive: [5] 88 % of control | [6] 100 % of control | [7] 88 % of control | [8] 89 % of control | [9] 105 % of control

O=Nc1ccc(/C=C/C(=O)O)cc1
inactive: [10] 102 % of control | [11] 105 % of control | [4] 100 % of control | [12] 113 % of control

O=C(O)c1cc(Cl)c(Cl)s1
inactive: [1] 101 % of control | [2] 100 % of control | [13] 103 % of control

O=C(Nc1ccc(F)c([N+](=O)[O-])c1)Nc1cc([N+](=O)[O-])ccc1F
inactive: [13] 96 % of control | [3] 93 % of control | [14] 101 % of control

C=CCOC(=O)C1OC12CCCCC2 (stereo not drawn)
inactive: [10] 104 % of control | [11] 95 % of control | [4] 101 % of control | [12] 98 % of control

OCN(CO)c1ccc2c(c1)Cc1cc(F)ccc1-2
inactive: dose: 100.0 mg/kg/injection, schedule: Q04DX003 (ip), vehicle: acetone 107 % of control | dose: 200.0 mg/kg/injection, schedule: Q04DX003 (ip), vehicle: acetone 98 % of control

O=C(COc1ccccc1)Nc1ccc(Cl)cc1
inactive: dose: 100.0 mg/kg/injection, schedule: Q01DX009 (ip), vehicle: Klucel (hydroxypropylcellulose) (HPC) 89 % of control | dose: 200.0 mg/kg/injection, schedule: Q01DX009 (ip), vehicle: Klucel (hydroxypropylcellulose) (HPC) 95 % of control | dose: 400.0 mg/kg/injection, schedule: Q01DX009 (ip), vehicle: Klucel (hydroxypropylcellulose) (HPC) 90 % of control

O=C(O)CC(NC(=O)OCc1ccccc1)c1ccc(Cl)cc1 (stereo not drawn)
inactive: [15] 90 % of control | [5] 100 % of control and 112 % of control | dose: 100.0 mg/kg/injection, schedule: Q04DX002 (ip), vehicle: saline with Tween-80 103 % of control | [6] 101 % of control | [16] 94 % of control | [7] 93 % of control and 102 % of control | dose: 200.0 mg/kg/injection, schedule: Q04DX002 (ip), vehicle: saline with Tween-80 103 % of control | [8] 93 % of control | [17] 101 % of control | dose: 400.0 mg/kg/injection, schedule: Q04DX002 (ip), vehicle: saline with Tween-80 92 % of control | [9] 101 % of control

COC(=O)c1cc(I)cc(I)c1N
inactive: [15] 98 % of control | [16] 98 % of control | [17] 100 % of control

O=c1oc2ccccc2c(N2CCCCC2)c1Cl
inactive: dose: 100.0 mg/kg/injection, schedule: Q04DX002 (ip), vehicle: gum acacia 111 % of control | dose: 200.0 mg/kg/injection, schedule: Q04DX002 (ip), vehicle: gum acacia 104 % of control | dose: 400.0 mg/kg/injection, schedule: Q04DX002 (ip), vehicle: gum acacia 93 % of control

O=C(Nc1cc(C(F)(F)F)ccc1Cl)c1ccc(Cl)cc1Cl
inactive: dose: 100.0 mg/kg/injection, schedule: Q01DX009 (sc), vehicle: olive oil, sesame oil, peanut oil 104 % of control | dose: 100.0 mg/kg/injection, schedule: Q04DX003 (sc), vehicle: olive oil, sesame oil, peanut oil 106 % of control | dose: 200.0 mg/kg/injection, schedule: Q01DX009 (sc), vehicle: olive oil, sesame oil, peanut oil 113 % of control | dose: 200.0 mg/kg/injection, schedule: Q04DX003 (sc), vehicle: olive oil, sesame oil, peanut oil 101 % of control | dose: 400.0 mg/kg/injection, schedule: Q01DX009 (sc), vehicle: olive oil, sesame oil, peanut oil 107 % of control | dose: 400.0 mg/kg/injection, schedule: Q04DX003 (sc), vehicle: olive oil, sesame oil, peanut oil 101 % of control

COc1ccc(CCS(=O)(=O)N=[N+]=[N-])cc1
inactive: [6] 104 % of control | [8] 116 % of control | [9] 112 % of control

C=CCNC(=O)N(CC)C(=NCC)c1ccc(NC(=O)c2ccc(C(=O)Nc3ccc(C(=NCC)N(CC)C(=O)NCC=C)cc3)cc2)cc1
inactive: dose: 3.87 mg/kg/injection, schedule: Q01DX015 (ip), vehicle: methylcellulose (MC) 104 % of control

OCCN1CCSC1=S
inactive: [5] 87 % of control | [7] 88 % of control

O=C(CCN1CC=C(c2ccccc2)CC1)c1ccc(F)cc1
inactive: dose: 50.0 mg/kg/injection, schedule: Q01DX001 (ip), vehicle: Klucel (hydroxypropylcellulose) (HPC) 93 % of control | dose: 100.0 mg/kg/injection, schedule: Q01DX001 (ip), vehicle: Klucel (hydroxypropylcellulose) (HPC) 97 % of control

OCC1(c2ccccc2)OC1(c1ccccc1)c1ccccc1 (stereo not drawn)
inactive: dose: 6.25 mg/kg/injection, schedule: Q04DX002 (ip), vehicle: Klucel (hydroxypropylcellulose) (HPC) 86 % of control | dose: 12.5 mg/kg/injection, schedule: Q04DX002 (ip), vehicle: Klucel (hydroxypropylcellulose) (HPC) 101 % of control | dose: 25.0 mg/kg/injection, schedule: Q04DX002 (ip), vehicle: Klucel (hydroxypropylcellulose) (HPC) 99 % of control and 101 % of control

O=[N+]([O-])c1ccc(S)cc1
inactive: dose: 100.0 mg/kg/injection, schedule: Q01DX009 (ip), vehicle: saline sonified 103 % of control | [13] 89 % of control | dose: 200.0 mg/kg/injection, schedule: Q01DX009 (ip), vehicle: saline sonified 91 % of control | dose: 400.0 mg/kg/injection, schedule: Q01DX009 (ip), vehicle: saline sonified 92 % of control | [14] 90 % of control

O=C(O)C1C(c2c3ccc(=O)c(O)c-3oc3c(O)c(O)ccc23)C2(Cl)C(Cl)=C(Cl)C1(Cl)C2(Cl)Cl (stereo not drawn)
inactive: dose: 50.0 mg/kg/injection, schedule: Q01DX009 (ip), vehicle: alcohol 92 % of control | dose: 100.0 mg/kg/injection, schedule: Q01DX009 (ip), vehicle: alcohol 92 % of control | dose: 100.0 mg/kg/injection, schedule: Q04DX003 (ip), vehicle: alcohol 100 % of control | dose: 200.0 mg/kg/injection, schedule: Q04DX003 (ip), vehicle: alcohol 95 % of control

Cc1ccnc(NC(=O)Nc2ccccc2F)c1
inactive: [11] 97 % of control and 106 % of control | [5] 92 % of control | dose: 100.0 mg/kg/injection, schedule: Q04DX003 (ip), vehicle: saline 95 % of control | [4] 101 % of control | [7] 96 % of control | dose: 200.0 mg/kg/injection, schedule: Q04DX003 (ip), vehicle: saline 101 % of control | [12] 97 % of control and 88 % of control | dose: 400.0 mg/kg/injection, schedule: Q01DX009 (ip), vehicle: saline with Tween-80 91 % of control | dose: 400.0 mg/kg/injection, schedule: Q04DX003 (ip), vehicle: saline 101 % of control

CCS(=O)(=O)c1ccc(NC(=O)OC2CCCC2)cc1
inactive: dose: 100.0 mg/kg/injection, schedule: Q01DX001 (ip), vehicle: other 100 % of control | dose: 200.0 mg/kg/injection, schedule: Q01DX001 (ip), vehicle: other 96 % of control | dose: 400.0 mg/kg/injection, schedule: Q01DX001 (ip), vehicle: other 89 % of control

— PubChem BioAssay AID248 (DTP/NCI, 2004)
